Experimental data from US20240108618A1, “KRAS G12C INHIBITOR DOSING REGIMENS” (Eli Lilly and Company, priority 2022, published 2024).
Where “and” joins values, the source holds several entries; their conditions need not be identical. Identical values can stand only once.

Tested on: KRAS G12C-mutant advanced solid tumors
Assay: NCT04956640 Phase 1a monotherapy clinical response (BOR, ORR, DCR, DOR, TTR, % change from baseline, treatment duration)
Assay type: in vivo, human
Design: key to Duration of response (months), Median / Best Response: CR: complete response; PR: partial response; uPR: a partial response pending confirmation; SD: stable disease; PD: progressive disease; NE: not estimable
Details: for Time to response (months), Interquartile range / Time to response (months), Median / Duration of response (months), Median / % Change from Baseline in Sum of Diameters for all Target Lesions / Best Response / Time (months) of Death / Time (months) of Partial Response - Confirmed / Time (months) of Progressive Disease / Time (months) of Partial Response - Pending Confirmation and Ongoing / Patients with best overall response of CR or PR: Phase 1a; for Duration of response (months), Median: Kaplan-Meier estimate; for % Change from Baseline in Sum of Diameters for all Target Lesions / Best Response / Time (months) of Death / Time (months) of Partial Response - Confirmed / Time (months) of Progressive Disease / Time (months) of Partial Response - Pending Confirmation and Ongoing: individual patients
Procedure: The term “BOR” as used herein refers to best overall response based on investigator assessments using RECIST criteria (version 1.1). The minimum duration for BOR of SD is at least 6 weeks after the date of first dose of study drug.
The term “DOR” as used herein refers to duration of response, wherein DOR in months is calculated as the event or censoring date minus the response start date plus 1 day divided by 30.4375.
The term “ORR” as used herein refers to objective response rate, wherein objective response rate is the proportion of patients with BOR of CR or PR. Objective response rate, unconfirmed, is the proportion of patients with BOR of CR, PR, or uPR.
The term “TTR” as used herein refers to time to response, wherein TTR in months is calculated as response start date minus first dose date plus 1 day divided by 30.4375.
NCT04956640 includes Phase 1a dose escalation (Part A of NCT04956640, see Table 3) followed by a Phase 1b dose expansion (Parts B to E of NCT04956640, see Table 4). […] Phase 1b dose expansion will include 12 cohorts (See Table 4) to further evaluate safety and clinical activity.

[1] = starting dose 50 BID, no prior KRAS G12Ci, listed as compound of Formula I
[2] = starting dose 50 BID, prior KRAS G12Ci Y, listed as compound of Formula I
[3] = starting dose 100 BID, no prior KRAS G12Ci, listed as compound of Formula I
[4] = starting dose 100 BID, prior KRAS G12Ci Y
[5] = starting dose 100 BID, prior KRAS G12Ci Y, listed as compound of Formula I
[6] = starting dose 150 BID, no prior KRAS G12Ci, listed as compound of Formula I
[7] = starting dose 150 BID, prior KRAS G12Ci Y, listed as compound of Formula I
[8] = starting dose 200 BID, no prior KRAS G12Ci, listed as compound of Formula I
[9] = starting dose 200 BID, prior KRAS G12Ci Y, listed as compound of Formula I
[10] = starting dose 50 mg BID (N = 14)
[11] = starting dose 100 mg BID (N = 24)
[12] = starting dose 150 mg BID (N = 25)
[13] = starting dose 200 mg BID (N = 12)
[14] = starting dose 50 mg BID, incl. intrapatient dose escalation
[15] = starting dose 100 mg BID, incl. intrapatient dose escalation
[16] = starting dose 150 mg BID, 11 patients with scan data
[17] = starting dose 200 mg BID, 5 patients with scan data

C=CC(=O)N1CCN2C(=O)c3cc(F)c(-c4ccc(F)c5sc(N)c(C#N)c45)c(Cl)c3OCC[C@H]2C1 (single isomer, unassigned) [Formula I]
Time to response (months), Interquartile range (Total (N = 75)): 1.45 months | Time to response (months), Median (Total (N = 75)): 1.41 months | Duration of response (months), Median (Total (N = 75)): 6.24 months | % Change from Baseline in Sum of Diameters for all Target Lesions [1]: 9.7% and −0.3% and −6.0% and −8.6% and −9.9% and −10.5% and −13.1% and −17.1% and −26.8% and −31.6% and −45.0% | Best Response [1]: PD and SD (8×) and PR Confirmed (2×) | Time (months) of Death [1]: 9.8 months and 5.7 months and 1.8 months and 7.4 months and 11.5 months | Time (months) of Partial Response - Confirmed [1]: 1.3 months and 1.2 months | Time (months) of Progressive Disease [1]: 6.7 months and 2.8 months (2×) and 1.2 months and 5.3 months and 2.7 months and 11.1 months | % Change from Baseline in Sum of Diameters for all Target Lesions [2]: −13.0% and 50.0% | Best Response [2]: SD and PD | Time (months) of Death [2]: 8.4 months and 1.8 months | Time (months) of Progressive Disease [2]: 5.6 months and 1.3 months and 1.0 months | % Change from Baseline in Sum of Diameters for all Target Lesions [3]: 0.7% and 0.5% and −4.8% and −6.0% and −8.1% and −17.3% and −21.1% and −22.4% and −22.7% and −25.1% and −29.8% and −30.0% and −32.3% (2×) and −35.4% and −51.4% and −54.0% and −54.8% and −57.1% and −84.4% | Best Response [3]: SD (10×) and PD (2×) and PR Pending (2×) and PR Confirmed (6×) | Time (months) of Death [3]: 7.0 months and 10.3 months and 7.6 months and 1.7 months | Time (months) of Partial Response - Confirmed [3]: 1.3 months and 1.4 months (4×) and 7.7 months | Time (months) of Partial Response - Pending Confirmation and Ongoing [3]: 5.5 months and 1.2 months | Time (months) of Progressive Disease [3]: 2.9 months and 2.7 months and 4.2 months and 6.9 months and 4.1 months and 1.2 months and 5.6 months and 1.3 months and 9.5 months | Time (months) of Death [4]: 4.2 months | Time (months) of Partial Response - Confirmed [4]: 3.1 months | Time (months) of Progressive Disease [4]: 2.8 months | % Change from Baseline in Sum of Diameters for all Target Lesions [5]: −4.3% and −40.0% and −44.7% | Best Response [5]: SD (2×) and PR Confirmed | Time (months) of Partial Response - Pending Confirmation and Ongoing (starting dose 150 BID, no prior KRAS G12Ci): 1.2 months | % Change from Baseline in Sum of Diameters for all Target Lesions [6]: 27.3% and 4.3% and 3.8% and 3.4% and 0.0% and −0.7% and −5.3% and −7.1% and −8.2% and −11.5% and −16.7% and −18.8% and −23.3% and −24.0% and −37.0% and −41.6% and −51.0% and −52.4% and −60.3% and −67.9% and −91.1% | Best Response [6]: PD and SD (13×) and PR Pending and PR Confirmed (6×) | Time (months) of Death [6]: 5.3 months and 4.9 months | Time (months) of Partial Response - Confirmed [6]: 1.5 months and 4.1 months and 4.2 months and 1.4 months (3×) | Time (months) of Progressive Disease [6]: 9.7 months and 6.7 months and 7.6 months and 4.1 months and 3.3 months and 1.2 months | Time (months) of Death (starting dose 150 BID, prior KRAS G12Ci Y): 3.3 months | % Change from Baseline in Sum of Diameters for all Target Lesions [7]: −0.7% and −3.3% and −25.8% and −29.7% | Best Response [7]: SD (3×) and PD | Time (months) of Progressive Disease [7]: 4.1 months and 1.2 months | Time (months) of Death (starting dose 200 BID, no prior KRAS G12Ci): 4.7 months | % Change from Baseline in Sum of Diameters for all Target Lesions [8]: −4.2% and −5.0% and −9.6% and −9.9% and −14.3% and −32.3% and −37.5% and −65.9% and −75.0% | Best Response [8]: SD (4×) and PD and PR Confirmed (4×) | Time (months) of Partial Response - Confirmed [8]: 2.8 months and 1.4 months and 1.2 months (2×) | Time (months) of Progressive Disease [8]: 2.9 months and 2.5 months and 1.3 months and 8.3 months and 7.4 months | Time (months) of Progressive Disease (starting dose 200 BID, prior KRAS G12Ci Y): 1.3 months | % Change from Baseline in Sum of Diameters for all Target Lesions [9]: 5.3% and 1.4% | Best Response [9]: PD and SD | Patients with best overall response of CR or PR [10]: 2 (14.3) N′ (%) | Time to response (months), Interquartile range [10]: 0.13 months | Time to response (months), Median [10]: 1.25 months | Duration of response (months), Median [10]: NE | Patients with best overall response of CR or PR [11]: 7 (29.2) N′ (%) | Time to response (months), Interquartile range [11]: 1.68 months | Time to response (months), Median [11]: 1.41 months | Duration of response (months), Median [11]: 5.45 months | Patients with best overall response of CR or PR [12]: 6 (24.0) N′ (%) | Time to response (months), Interquartile range [12]: 2.69 months | Time to response (months), Median [12]: 1.46 months | Duration of response (months), Median [12]: 7.21 months | Patients with best overall response of CR or PR [13]: 4 (33.3) N′ (%) | Time to response (months), Interquartile range [13]: 0.87 months | Time to response (months), Median [13]: 1.33 months | Duration of response (months), Median [13]: 6.93 months | median time to response (human, in vivo): 1.4 month | Best observed response PR (unconfirmed and confirmed), patients (other tumor types): 3 | Best observed response SD, patients (other tumor types): 6 | PR, patients (starting dose 50 mg BID): 0 | DCR [14]: 75% | ORR [14]: 0% | PD, patients (starting dose 100 mg BID): 2 (2 PANC) | DCR [15]: 80% | ORR [15]: 40% | DCR [16]: 90.9% | ORR [16]: 18.2% | DCR [17]: 100% | ORR [17]: 20%
